We go through 25 compounds from patent publication US20240294489A1 (Captor Therapeutics S.A., priority 2020, published 2024).

As usually defined, the IC50 is the midpoint of a concentration-inhibition curve.

What all share (format): cell-based
In one test the test system is H929 cells. As to the kind of experiment: Cell viability CTG assay, H929. On the set-up: key to Geomean absolute IC50 by molecule, 72 H: Inactive represents IC50 > 50 μM; C represents 50 μM ≥ IC50 > 5 μM. The note with it: H929, 72 h, 0.001-50 μM; for IC50: Homo sapiens, NCI-H929, numeric values, read-out: Geomean absolute IC50 by molecule, 72 H. The protocol: (§1) The effect of various compounds of the invention and various reference compounds on cell viability in various cell lines was investigated, using the Cell Viability—CTG Assay Protocol below. Hep3B, Kelly, H929, KG-1 and SNU-398 cells were maintained in respective cell medium (see Table 8, below). The cells were seeded on the 96-well or 384-white plates, and the compounds to be tested were added at the desired concentration range. Compounds are diluted in DMSO, and the DMSO concentration is kept constant at 0.25% v/v across the assay plate. After 72 h incubation (37° C., 5% CO2), CellTiter-Glo® Reagent (Promega/G7570) was added to the wells. Plates are shaken for 4 minutes and incubated for 8 minutes in the dark prior to reading luminescence (LU) by using the CLARIOstar Multimode Plate Reader. The signal is proportional to the amount of ATP, which is directly proportional to the number of cells present in the culture.
(§2) Luminescence (RLU) values were normalized to DMSO control. Dose response is assessed by non-linear regression and IC50 calculation with the average of technical duplicate of percentage inhibition. IC50 values are reported as absolute IC50 values, being the concentration of test compound at the intersection of the concentration-response curves with T/C=50%. For calculation of mean IC50 values the geometric mean is used.

Another test has as its target T1, GSPT1 (Homo sapiens, UniProt P15170+Q96SW2).
T1 construct: GSPT1 degradation in the Hep3B cell line was investigated; endogenous in cells; host or cells: Hep3B
The test can be described thus: GSPT1 degradation assay, Hep3B cell line. The note with it: HEP3B cells, 24 h, read-out: % of GSPT1 protein reduction. As to the method:
(§3) Hep3B cells were maintained in EMEM medium, supplemented with penicillin/streptomycin and 10% Fetal Bovine Serum (FBS). Cells were seeded on 6- or 12-well plates, and the compounds to be tested were added at the desired concentration range. Final DMSO concentration was 0.25%. After 24 h incubation (37° C., 5% CO2), cells were harvested, washed and cell lysates were prepared using RIPA lysis buffer. The amount of protein was determined via BCA assay, and the appropriate quantity was then loaded on the precast gel for the protein separation. After primary and secondary Ab staining, the membranes were washed and signals developed. The densitometry analysis was implemented to obtain the numeric values used later in the protein level evaluation process. Densitometry values were normalized to the loading control and calculated as [%] of the DMSO control.

The target of another test is T2, Ikaros (IKZF1) (Homo sapiens, UniProt Q13422+Q96SW2).
T2 construct: Ikaros degradation in the H929 cell line was investigated; endogenous in cells; host or cells: H929
T2 sequence (Q13422 whole entry): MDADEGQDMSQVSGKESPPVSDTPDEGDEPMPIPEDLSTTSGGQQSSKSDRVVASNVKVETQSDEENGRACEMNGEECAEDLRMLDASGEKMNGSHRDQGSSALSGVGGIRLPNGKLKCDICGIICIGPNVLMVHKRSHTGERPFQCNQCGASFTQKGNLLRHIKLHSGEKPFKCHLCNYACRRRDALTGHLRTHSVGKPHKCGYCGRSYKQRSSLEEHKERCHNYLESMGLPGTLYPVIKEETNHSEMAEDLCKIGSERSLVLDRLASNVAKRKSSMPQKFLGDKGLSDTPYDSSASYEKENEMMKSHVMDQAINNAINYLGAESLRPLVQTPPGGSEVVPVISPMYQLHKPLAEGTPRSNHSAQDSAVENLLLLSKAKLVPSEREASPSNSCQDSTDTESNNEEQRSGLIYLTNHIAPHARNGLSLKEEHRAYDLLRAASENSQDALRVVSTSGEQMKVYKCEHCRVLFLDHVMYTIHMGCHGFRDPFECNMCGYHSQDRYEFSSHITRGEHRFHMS
T2 sequence (Q96SW2 whole entry): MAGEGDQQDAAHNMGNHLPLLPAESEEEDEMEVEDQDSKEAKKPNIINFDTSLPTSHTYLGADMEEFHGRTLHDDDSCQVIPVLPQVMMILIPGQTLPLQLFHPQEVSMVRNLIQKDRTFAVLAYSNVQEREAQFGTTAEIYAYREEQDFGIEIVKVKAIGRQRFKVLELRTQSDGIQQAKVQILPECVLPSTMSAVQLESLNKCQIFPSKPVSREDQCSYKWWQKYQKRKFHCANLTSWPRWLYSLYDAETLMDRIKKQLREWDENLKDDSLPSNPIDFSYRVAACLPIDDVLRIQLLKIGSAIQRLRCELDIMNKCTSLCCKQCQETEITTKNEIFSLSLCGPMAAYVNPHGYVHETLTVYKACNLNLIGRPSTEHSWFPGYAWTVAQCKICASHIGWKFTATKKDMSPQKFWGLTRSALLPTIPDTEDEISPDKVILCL
T2 sequence (Q16531 whole entry partner): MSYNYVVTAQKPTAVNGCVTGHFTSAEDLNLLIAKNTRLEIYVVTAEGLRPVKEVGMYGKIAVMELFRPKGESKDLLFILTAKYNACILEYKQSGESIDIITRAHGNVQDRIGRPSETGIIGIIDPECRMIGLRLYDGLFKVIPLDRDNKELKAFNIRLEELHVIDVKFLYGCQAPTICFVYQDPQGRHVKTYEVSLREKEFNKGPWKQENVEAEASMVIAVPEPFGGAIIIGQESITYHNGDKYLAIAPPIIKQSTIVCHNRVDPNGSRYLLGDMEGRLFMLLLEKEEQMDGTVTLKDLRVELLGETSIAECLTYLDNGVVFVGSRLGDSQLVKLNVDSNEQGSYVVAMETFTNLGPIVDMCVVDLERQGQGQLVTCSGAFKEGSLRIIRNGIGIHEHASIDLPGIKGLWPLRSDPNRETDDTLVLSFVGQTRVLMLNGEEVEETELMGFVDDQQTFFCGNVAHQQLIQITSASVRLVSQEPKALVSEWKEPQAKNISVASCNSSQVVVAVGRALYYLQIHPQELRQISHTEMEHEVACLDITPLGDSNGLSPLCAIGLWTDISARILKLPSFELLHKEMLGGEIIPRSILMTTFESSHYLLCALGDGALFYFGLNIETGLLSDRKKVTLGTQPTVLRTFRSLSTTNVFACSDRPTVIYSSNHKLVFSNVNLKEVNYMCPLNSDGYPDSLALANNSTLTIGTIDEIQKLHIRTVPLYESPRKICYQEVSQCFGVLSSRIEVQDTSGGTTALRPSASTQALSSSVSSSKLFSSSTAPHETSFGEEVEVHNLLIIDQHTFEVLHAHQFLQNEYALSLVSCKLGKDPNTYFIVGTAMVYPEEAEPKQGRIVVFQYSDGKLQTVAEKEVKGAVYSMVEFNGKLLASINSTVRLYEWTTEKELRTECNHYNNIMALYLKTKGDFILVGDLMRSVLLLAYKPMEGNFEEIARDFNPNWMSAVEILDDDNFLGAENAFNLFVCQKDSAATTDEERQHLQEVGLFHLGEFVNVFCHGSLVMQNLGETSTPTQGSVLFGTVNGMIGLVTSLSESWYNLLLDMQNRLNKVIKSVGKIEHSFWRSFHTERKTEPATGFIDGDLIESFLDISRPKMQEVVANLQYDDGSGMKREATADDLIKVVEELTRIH
The test can be described thus: Ikaros degradation assay, H929 cell line. The note with it: H929 cells, 24 h; for inhibition at 10 µM / inhibition at 20 µM: NCI-H929, read-out: % of IKZF1 protein reduction; for % of IKZF1 protein reduction: numeric values. As to the method: as §3, with “Cells” for “Hep3B cells were maintained in EMEM medium, supplemented with penicillin/streptomycin and 10% Fetal Bovine Serum (FBS). Cells”, “Final DMSO concentration was 0.25%.” left out, “process.” for “process. Densitometry values were normalized to the loading control and calculated as [%] of the DMSO control.”

The next test has as its system Hep3B cells. As to the kind of experiment: Cell viability CTG assay, Hep3B. The note with it: Homo sapiens, 72 h, 0.001-50 μM, read-out: Hep3B Geomean absolute IC50 by molecule, 72 H. The protocol: as §1, §2
In a further test the test system is KG-1 cells. The test can be described thus: Cell viability CTG assay, KG-1. The note with it: Homo sapiens; KG-1, 72 h, 0.001-50 μM; read-out: KG-1 Geomean absolute IC50 by molecule, 72 H. As to the method:
as §1, §2

Where a name gives a salt, the structure may show the parent alone.

T1 sequence (P15170 whole entry): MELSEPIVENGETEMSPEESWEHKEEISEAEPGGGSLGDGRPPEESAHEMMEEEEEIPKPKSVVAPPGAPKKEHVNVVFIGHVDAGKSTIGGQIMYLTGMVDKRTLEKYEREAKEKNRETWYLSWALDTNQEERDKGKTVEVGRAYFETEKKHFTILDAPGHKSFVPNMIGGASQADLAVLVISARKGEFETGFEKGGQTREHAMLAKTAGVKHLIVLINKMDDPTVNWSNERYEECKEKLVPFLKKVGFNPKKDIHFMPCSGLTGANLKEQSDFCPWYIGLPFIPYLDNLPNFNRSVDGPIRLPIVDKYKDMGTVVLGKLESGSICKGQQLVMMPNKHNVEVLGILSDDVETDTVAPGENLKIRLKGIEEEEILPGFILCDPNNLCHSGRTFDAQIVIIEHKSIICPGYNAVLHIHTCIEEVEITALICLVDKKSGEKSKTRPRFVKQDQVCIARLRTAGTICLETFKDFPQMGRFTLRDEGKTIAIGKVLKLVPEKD
T1 sequence (Q96SW2 whole entry): as the sequence (Q96SW2 whole entry) above
T1 sequence (Q16531 whole entry partner): as the sequence (Q16531 whole entry partner) above

With `Cc1nc2cccc(N)c2c(=O)n1C1CCC(=O)NC1=O` (stereo not drawn) [CC-122, reference compound], the IC50 with H929 cells is 72 nM. For the compound `CC(=O)OCc1ccccc1C(=O)NCc1ccc2c(c1)CN(C1CCC(=O)NC1=O)C2=O` (stereo not drawn) [Compound 19, [2-({[2-(2,6-dioxopiperidin-3-yl)-1-oxo-2,3-dihydro-1H-isoindol-5-yl]methyl}carbamoyl)phenyl]methyl acetate], the inhibition at 10 µM on GSPT1 is 50 to 79%. As to `C[C@@H](N)c1ccc2c(c1)CN(C1CCC(=O)NC1=O)C2=O` (stereo partly drawn) [Compound 10, 3-{5-[(1R)-1-aminoethyl]-1-oxo-2,3-dihydro-1H-isoindol-2-yl}piperidine-2,6-dione], the inhibition at 10 µM on Ikaros (IKZF1) (10 uM) lay in the range of 0 to 24%.

For the compound `O=C1CC[C@@H](N2Cc3c(OCc4ccc(CN5CCOCC5)cc4)cccc3C2=O)C(=O)N1` [CC-220, reference compound], the IC50 in the test with H929 cells was found to be 4 nM.

With `NCc1cc(F)c2c(c1)CN(C1CCC(=O)NC1=O)C2=O` (stereo not drawn) [Compound 7, 3-[5-(aminomethyl)-7-fluoro-1-oxo-2,3-dihydro-1H-isoindol-2-yl]piperidine-2,6-dione], the inhibition at 10 µM was 50 to 79% on GSPT1 and 0 to 24% at Ikaros (IKZF1) (10 uM). Turning to `CN(C)Cc1ccc2c(c1)CN(C1CCC(=O)NC1=O)C2=O` (stereo not drawn) [Compound 16, 3-(5-((dimethylamino)methyl)-1-oxoisoindolin-2-yl)piperidine-2,6-dione], the inhibition at 10 µM on Ikaros (IKZF1) (10 uM) lay within 0 to 24%. In the case of `CC(C)(C)OC(=O)NCC(=O)NCc1ccc2c(c1)CN(C1CCC(=O)NC1=O)C2=O` (stereo not drawn) [Compound 26, tert-butyl (2-(((2-(2,6-dioxopiperidin-3-yl)-1-oxoisoindolin-5-yl)methyl)amino)-2-oxoethyl)carbamate], in the test on Hep3B cells, the IC50 is at most 100 nM. Also, in the test on H929 cells, the “Geomean absolute IC50 by molecule, 72 H” value was “Inactive”. The inhibition at 20 µM at Ikaros (IKZF1) (20 uM) was 0 to 24%.

As for `Cc1c(CN)ccc2c1CN(C1CCC(=O)NC1=O)C2=O` (stereo not drawn) [Compound 6, 3-[5-(aminomethyl)-4-methyl-1-oxo-2,3-dihydro-1H-isoindol-2-yl]piperidine-2,6-dione], the IC50 in the test with Hep3B cells is at most 100 nM. The “Geomean absolute IC50 by molecule, 72 H” value with H929 cells is “Inactive”. Consider `CC(C)(C)OC(=O)N[C@@H](Cc1cnc[nH]1)C(=O)NCc1ccc2c(c1)CN([C@H]1CCC(=O)NC1=O)C2=O` [Compound 30, tert-butyl ((S)-1-(((2-((S)-2,6-dioxopiperidin-3-yl)-1-oxoisoindolin-5-yl)methyl)amino)-3-(1H-imidazol-4-yl)-1-oxopropan-2-yl)carbamate], for which the inhibition at 20 µM on Ikaros (IKZF1) (20 uM) is 0 to 24%. Consider `N=C(N)NCCCC(N)C(=O)NCc1ccc2c(c1)CN(C1CCC(=O)NC1=O)C2=O` (stereo not drawn) [Compound 38, 2-amino-N-((2-(2,6-dioxopiperidin-3-yl)-1-oxoisoindolin-5-yl)methyl)-5-guanidinopentanamide], for which the IC50 in the test on Hep3B cells lay within 100 to 1000 nM. Moreover, the “Geomean absolute IC50 by molecule, 72 H” value in the test with H929 cells was “Inactive”. For the compound `C[C@H](NC(=O)OC(C)(C)C)c1ccc2c(c1)CN(C1CCC(=O)NC1=O)C2=O` (stereo partly drawn) [Compound 9, tert-butyl N-[(1S)-1-[2-(2,6-dioxopiperidin-3-yl)-1-oxo-2,3-dihydro-1H-isoindol-5-yl]ethyl]carbamate], on Ikaros (IKZF1) (20 uM), the inhibition at 20 µM fell in the range of 0 to 24%. Turning to `O=C1CCC(N2Cc3cc(CNC(=O)c4ccccc4CO)ccc3C2=O)C(=O)N1` (stereo not drawn) [Compound 20, N-{[2-(2,6-dioxopiperidin-3-yl)-1-oxo-2,3-dihydro-1H-isoindol-5-yl]methyl}-2-(hydroxymethyl)benzamide], on GSPT1, the inhibition at 10 µM lay in the range of 50 to 79%. In the case of `CC(C)(C)OC(=O)NC(C)(C)C(=O)NCc1ccc2c(c1)CN(C1CCC(=O)NC1=O)C2=O` (stereo not drawn) [Compound 33, tert-butyl (1-(((2-(2,6-dioxopiperidin-3-yl)-1-oxoisoindolin-5-yl)methyl)amino)-2-methyl-1-oxopropan-2-yl)carbamate], at Ikaros (IKZF1) (20 uM), the inhibition at 20 µM was 0 to 24%. On the same count and under the same terms, the same measure for `CC(C)(N)C(=O)NCc1ccc2c(c1)CN(C1CCC(=O)NC1=O)C2=O` (stereo not drawn) [Compound 34, 2-amino-N-((2-(2,6-dioxopiperidin-3-yl)-1-oxoisoindolin-5-yl)methyl)-2-methylpropanamide]: 0 to 24%.

In the case of `CC1c2cc(CN)ccc2C(=O)N1C1CCC(=O)NC1=O` (stereo not drawn) [Compound 52, 3-[5-(aminomethyl)-3-methyl-1-oxo-2,3-dihydro-1H-isoindol-2-yl]piperidine-2,6-dione], the inhibition at 10 µM on GSPT1 is 80 to 100%; on Ikaros (IKZF1) (10 uM) it was 0 to 24%. In the test on Hep3B cells, the IC50 was at most 100 nM. Also, the “Geomean absolute IC50 by molecule, 72 H” value in the test on H929 cells is given as “Inactive”. On to `C[C@@H](NC(=O)OC(C)(C)C)c1ccc2c(c1)CN(C1CCC(=O)NC1=O)C2=O` (stereo partly drawn) [Compound 11, tert-butyl N-[(1R)-1-[2-(2,6-dioxopiperidin-3-yl)-1-oxo-2,3-dihydro-1H-isoindol-5-yl]ethyl]carbamate], for which the inhibition at 20 µM at Ikaros (IKZF1) (20 uM) is 0 to 24%.

For `C[C@H](N)c1ccc2c(c1)CN(C1CCC(=O)NC1=O)C2=O` (stereo partly drawn) [Compound 8, 3-{5-[(1S)-1-aminoethyl]-1-oxo-2,3-dihydro-1H-isoindol-2-yl}piperidine-2,6-dione], on Ikaros (IKZF1) (20 uM), the inhibition at 20 µM was in the range of 0 to 24%.

As for `O=C1CCC(N2Cc3cc(C(=O)O)ccc3C2=O)C(=O)N1` (stereo not drawn) [Compound 53], the inhibition at 1 µM on GSPT1 (1 uM) is 50 to 79%. In addition, the inhibition at 10 µM at GSPT1 lay in the range of 80 to 100%.

Take `CC(C)C(N)C(=O)NCc1ccc2c(c1)CN(C1CCC(=O)NC1=O)C2=O` (stereo not drawn) [Compound 32, 2-amino-N-((2-(2,6-dioxopiperidin-3-yl)-1-oxoisoindolin-5-yl)methyl)-3-methylbutanamide]: the inhibition at 20 µM on Ikaros (IKZF1) (20 uM) lay within 0 to 24%. Regarding `Cc1ccc(NC(=O)NCc2ccc3c(c2)CN(C2CCC(=O)NC2=O)C3=O)cc1Cl` (stereo not drawn) [CC-885, reference compound], the “% of IKZF1 protein reduction” value on Ikaros (IKZF1) (10 uM) and on Ikaros (IKZF1) (20 uM) was over 99% each time.

In the case of `O=C1CCC(N2Cc3cc(CO)ccc3C2=O)C(=O)N1` (stereo not drawn) [Compound 17, 3-(5-(hydroxymethyl)-1-oxoisoindolin-2-yl)piperidine-2,6-dione], on Ikaros (IKZF1) (10 uM), the inhibition at 10 µM lay in the range of 0 to 24%. On to `O=C1CCC(N2Cc3cc(C(=O)O)c(F)cc3C2=O)C(=O)N1` (stereo not drawn) [Compound 54, 2-(2,6-dioxopiperidin-3-yl)-6-fluoro-1-oxo-2,3-dihydro-1H-isoindole-5-carboxylic acid], for which the inhibition at 10 µM on GSPT1 was in the range of 80 to 100%; on Ikaros (IKZF1) (10 uM), 0 to 24%. `Cc1cc2c(cc1CN)CN(C1CCC(=O)NC1=O)C2=O` (stereo not drawn) [Compound 4, 3-[5-(aminomethyl)-6-methyl-1-oxo-2,3-dihydro-1H-isoindol-2-yl]piperidine-2,6-dione]: at Ikaros (IKZF1) (10 uM), the inhibition at 10 µM was 0 to 24%.

On to `NCc1ccc2c(c1F)CN(C1CCC(=O)NC1=O)C2=O` (stereo not drawn) [Compound 5, 3-[5-(aminomethyl)-4-fluoro-1-oxo-2,3-dihydro-1H-isoindol-2-yl]piperidine-2,6-dione], for which the inhibition at 10 µM fell in the range of 80 to 100% on GSPT1 and 0 to 24% at Ikaros (IKZF1) (10 uM). Besides, in the test with Hep3B cells, the IC50 lay in the range of 100 to 1000 nM. In the test with H929 cells, the “Geomean absolute IC50 by molecule, 72 H” value was “Inactive”. As to `O=C1CCC(N2Cc3cc(CNC(=O)[C@@H]4CCCN4)ccc3C2=O)C(=O)N1` (stereo partly drawn) [Compound 43, (2S)—N-((2-(2,6-dioxopiperidin-3-yl)-1-oxoisoindolin-5-yl)methyl)pyrrolidine-2-carboxamide hydrochloride], the IC50 with Hep3B cells fell in the range of 100 to 1000 nM; with KG-1 cells, 1000 to 5000 nM. The “Geomean absolute IC50 by molecule, 72 H” value in the test on H929 cells was “Inactive”. The inhibition at 20 µM at Ikaros (IKZF1) (20 uM) fell in the range of 0 to 24%.
